Experimental data published in paper PMC12441861, “Next-Generation Lipid Prodrugs Orally Deliver Tenofovir via Enhanced Chylomicron Incorporation” (ACS Pharmacology & Translational Science, 2025).

Key:
[1] = test system: Caco-2 cell-derived CMs; type: in vitro ADME, human; settings: for increase in CM concentration compared to TXL / CM concentration relative to ω-unmodified BOG prodrug (21a vs 8a, 21b vs 8b): 20 h
Procedure: [formula] 1 Chylomicron (CM) Isolation and Drug Quantification Methods ^a a (1) Caco-2 cells were grown to confluence. (2) Lipid mix was added to media (final drug concentration of 10 μM), and cells were incubated for 4 h. (3) Cells were washed 3× with PBS. (4) Cells were incubated in fresh media overnight. (5) CM-containing media was collected. (6) Media was combined with a 1.20 g/mL NaCl solution in an ultracentrifugation tube, 500 μL H2O was carefully layered on top, and the mixture was centrifuged at 10,950 RCF for 3 h. (7) The CM-containing upper layer was carefully isolated with a fine-tip pipette. (8) Test drug was then extracted from the CM layer with 70% ACN and quantified using LC-MS/MS.
With the presence of CMs in isolated Caco-2 cell extracts confirmed and reproducibility validated across replicates and different drugs, we were eager to investigate drug incorporation during CM biogenesis in vitro. Accordingly, we added test compound (Figure ) to differentiated Caco-2 cells along with the lipid mix to a final test drug concentration of 10 μM. While 10 μM was selected as a standard concentration for these studies, higher concentrations could allow detection of other compounds with low CM association in future experiments. In either case, CMs secreted by Caco-2 cells can be isolated postincubation, and drug concentrations within CMs can be assessed using highly sensitive LC-MS/MS methodology. Positive (high c Log D) and negative (low c Log D) control compounds were selected to validate this assay. […] Given these properties, we expected CAB to readily package into CMs in vitro. […]. […] This sets the stage for quantitative comparisons of TXL and its functionalized analogs, which are detailed below.
At 14-days postconfluence, Caco-2 cells were incubated in a lipid mixture to induce secretion of CMs. For the lipid solution, oleic acid (50 mg), lecithin (40 mg), and sodium taurocholate (48 mg) were weighted out into an Eppendorf tube, and the volume was brought up to 900 μL with PBS, followed by vigorous vortexing to ensure sample homogeneity. This 100× lipid mixture was then diluted into growth media to achieve the desired concentrations (2 mM oleic acid, 1.36 mM lecithin, 1 mM sodium taurocholate) by adding 500 μL of the lipid mixture to 49.5 mL of media. The lipid-supplemented media was thoroughly mixed and sterilized by filtration using a 250 mL sterile vacuum filter. For the drug-exposed CM experiments, each test compound was dissolved in 2 mM human serum albumin (HAS, Sigma, essentially fatty acid free) in DPBS, then added to 10 mL aliquots of lipid-containing media to achieve a final concentration of 10 μM. Subsequently, lipid-containing media was added to Caco-2 cells and incubated for 4 h at 37 °C. After incubation, cells were washed twice with PBS then incubated for 4, 8, or 20 h at 37 °C in fresh, colorless growth medium. Media was collected into 15 mL falcon tubes and centrifuged at 2000g to remove cell debris. Postcentrifugation, the supernatant was transferred to 50 mL Nalgene Oak Ridge High-Speed PPCO Centrifuge Tubes. Next, to adjust the density for ultracentrifugation, 1.19 g of NaCl in 2 mL of deionized (DI) H2O were added to reach a final volume of 5 mL, corresponding to a density of 1.20 g/mL. This mixture was dissolved by vortexing and balanced by weight. 500 μL of DI H2O was carefully overlaid onto the mixture. Ultracentrifugation was performed for 2 h and 30 min at 10,920 relative centrifugal force (RCF). Immediately after centrifugation, the top 500 μL layer, containing CMs, was carefully collected using a gel-loading pipet tip.
To an aliquot of CM extract was added an equal volume of ACN into 1.5 mL Eppendorf tubes. Tubes were shaken for 1 h at rt then centrifuged at 15,000 RCF to remove debris. The clear supernatant was transferred to a glass vial and concentrated under reduced pressure to yield a dry solid. Sample was then reconstituted in 70% ACN in H2O, filtered and then analyzed. […]

[2] = Metabolic stability in human liver microsomes; type: in vitro ADME; settings: pH 7.4, read-out: Metabolic Stability HLM t1/2
Procedure: Assays employed human liver microsomes (HLMs, 20 mg/mL) from Xenotech. A 10 mM NADPH stock was prepared in deionized H2O, and test compounds were dissolved in 100% MeOH to a final concentration of 10 mM. The stock solutions were diluted to 500 μM in 100 mM potassium phosphate buffer (pH 7.4), keeping the final MeOH concentration below 0.2%. Reaction mixtures were prepared by combining 928 μL phosphate buffer, 55 μL liver microsomes, and the test compound solution to a final concentration of 3 μM. Verapamil was used as a positive control. The reactions were initiated with the addition of 110 μL of 10 mM NADPH. Aliquots were taken in duplicate at 0, 5, 10, 15, and 30 min, quenched with 100 μL of cold MeOH containing 2 μM internal standard (d 5-7-ethoxy coumarin), and centrifuged at 12,000 RCF for 5 min. The supernatants were then transferred to LC-MS vials for analysis. The average of each duplicate was normalized to the 0 min time point, representing 100% remaining (0% metabolism).

[3] = Metabolic stability in mouse liver microsomes; type: in vitro ADME; settings: pH 7.4, read-out: Metabolic Stability MLM t1/2
[4] = Cytotoxicity, ATP luminescence (Cell Titer Glow) assay; settings: human

| increase in CM concentration compared to TXL ([1]; 10 μM) | half-life at 3 µM [2] | CM concentration relative to ω-unmodified BOG prodrug (21a vs 8a, 21b vs 8b) ([1]; 10 μM) | SMILES | half-life at 3 µM [3] | CC50 at 48 h [4] | CC50 at 48 h ([4]; TZM-bl cells) | detection of compound in CM extract by LC-MS/MS ([1]; 10 μM test drug, Caco-2 cells) | concentration in CMs compared with BOG prodrugs ([1]; 8 h, 10 μM) |
| --- | --- | --- | --- | --- | --- | --- | --- | --- |
| 3.3 fold | > 2 h | approximately 1.8 fold | C[C@H](Cn1cnc2c(N)ncnc21)OCP(=O)(O)OC[C@H](COCCCCCCCCCCCCCCCC(F)(F)F)OCc1ccccc1 [21a, Ammonium[(1R)-2-(6-Aminopurin-9-yl)-1-methyl-ethoxy]methyl-[(2S)-2-benzyloxy-3-(16,16,16-trifluorohexadecoxy)propoxy]phosphinate] | > 2 h |  | > 1 µM |  |  |
| 3.8 fold | > 2 h | ~1.6 fold | C[C@H](Cn1cnc2c(N)ncnc21)OCP(=O)(O)OC[C@H](COCCCCCCCCCCCCCCCCCC(F)(F)F)OCc1ccccc1 [21b, Ammonium[(1R)-2-(6-aminopurin-9-yl)-1-methyl-ethoxy]methyl-[(2S)-2-benzyloxy-3-(18,18,18-trifluorooctadecoxy)propoxy]phosphinate] | > 2 h |  | > 1 µM |  |  |
|  |  |  | CCCCCCCCCCCCCCCCOCCCOP(=O)(O)CO[C@H](C)Cn1cnc2c(N)ncnc21 [TXL, hexadecyloxypropyl (HDP)-TFV, reference compound] | > 2 h | > 1 µM |  | successfully detected in CM isolates | significantly greater concentrations in CMs than all BOG substituted prodrugs |

| SMILES | increase in CM concentration compared to TXL ([1]; 10 μM) | half-life at 3 µM [2] | CM concentration relative to ω-unmodified BOG prodrug (21a vs 8a, 21b vs 8b) ([1]; 10 μM) | half-life at 3 µM [3] | CC50 at 48 h [4] | CC50 at 48 h ([4]; TZM-bl cells) | detection of compound in CM extract by LC-MS/MS ([1]; 10 μM test drug, Caco-2 cells) | concentration in CMs compared with BOG prodrugs ([1]; 8 h, 10 μM) |
| --- | --- | --- | --- | --- | --- | --- | --- | --- |
| C[C@H](Cn1cnc2c(N)ncnc21)OCP(=O)(O)OCCCOCCCCCCCCCCCCCCCC(F)(F)F [15a, Ammonium[(1R)-2-(6-aminopurin-9-yl)-1-methyl-ethoxy]methyl-[3-(16,16,16-trifluorohexadecoxy)propoxy]phosphinate] | 2.4 fold | > 2 h |  | > 2 h | > 1 µM |  |  |  |
